A short description of series [1]: Chemical stability assessment, UPLC-UV purity loss in buffer system A. The series is classed as physicochemical. The conditions noted are these: 1 mg/ml, 25 mM acetate buffer pH 4.5 with m-cresol. As to the method: Prior to the chemical stability measurement of a peptide batch, its purity was determined through UPLC/MS. For stability testing the target concentration was 1 mg pure compound/ml. Therefore solutions from solid samples were prepared in a buffer system with a concentration of 1 mg/mL compound based on the previously determined % purity:
Chemical stability buffer system A) 25 mM acetate buffer pH 4.5, 3 mg/mL L-Methionine, 2.7 mg/mL m-cresol, 18 mg/mL Glycerol 85% Chemical stability buffer system B) 25 mM phosphate buffer pH 6.0, 3 mg/mL L-Methionine, 2.7 mg/mL m-cresol, 18 mg/mL Glycerol 85%
Peptide solutions were filtered through […] pore size and filled into aliquots under aseptic conditions. At starting point, UPLC-UV was performed by injection of 2 μl of the undiluted sample.
For chemical stability testing, aliquots were stored for 28 days at 5 and 40° C. After this time course the samples were centrifuged for 15 min at 2500 RCF. Then 2 μl of the undiluted supernatant were analysed with UPLC-UV.
The chemical stability was rated through the relative loss of purity calculated by the equation: [(purity at starting point)−(purity after 28 days at X° C.)]/(purity at starting point)]*100%
The purity is calculated as
[(peak area peptide)/(total peak area)]*100%
Peptide samples were prepared in Chemical stability buffer system A and the stability was assessed as described in Methods.

Series [2] is described as follows: Thioflavin T (ThT) assay for physical stability (fibrillation). The class given is physicochemical. The conditions noted are these: 3 mg/ml, 100 mM acetate pH 4.5 with m-cresol, 37° C. shaking. The gist of the method:
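Peptides at 3 mg/ml final with 100 μM ThT final in 100 mM acetate pH 4.5 containing 2.7 mg/mL m-cresol, eight replicates. Stressed at 37° C by repeated cycles of 10 s shaking at 960 rpm and 50 s rest. Fluorescence read every 20 minutes; lag time in hours taken from the sigmoidal kinetic curve.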

For series [3], the system named is female diabetic db/db mice. Kind of series: Acute effects after s.c. treatment on blood glucose in non-fasting female diabetic db/db mice. The series is classed as in vivo. The conditions noted are these: single 30 μg/kg s.c. As to the method:
Female healthy, lean BKS.Cg-(lean)/OlaHsd and diabetes-prone, obese BKS.Cg-+Lepr^db/+Lepr^db/OlaHsd mice were ordered group housed from Envigo RMS Inc., shipped group housed and remained group housed in shoebox caging with wood chip bedding until day 15 of the predose phase. At the study start mice were approximately 12 weeks old.
Mice were housed under vivarium conditions including a 12 h light/dark cycle (light phase 04:00 AM-4:00 PM), room temperatures between 23-26° C. and a relative humidity between 30-70%. All animals had free access to water and Purina Fomulab Diet 5008.
On predose day 9 blood glucose and body mass (approximately between 08:00-10:00 AM) as well as HbA1c measurements were performed. On day 15 of the predose phase animals were assigned to treatment groups (n=8) and to new cages to match mean HbA1c and body masses between all db/db groups. An age-matched lean group was included in the study as a healthy, lean reference.
Prior to day 1 of the dosing phase, the test article was diluted with Phosphate Buffered Saline (PBS, Gibco, without CaCl2 and MgCl2) to a concentration of 1 mg/mL and aliquots of this stock solution were stored at approximately ≤−60° C. On day 1 of the dosing phase the stock aliquot was thawed and the injected test article solution was prepared fresh by diluting it with PBS to achieve the desired concentration.
On Day 1 of the dosing phase db/db mice were either treated once with a s.c. injection of PBS-vehicle or 30 μg/kg test article. The lean reference group was treated once with a s.c. injection of PBS-vehicle. The dosing was initiated and completed between 08:00 and 10:00 AM. The applied volume was 5 ml/kg and the dose was adjusted to the most recent body mass recording of each individual.
Animals had unlimited access to water and feed during the experiment. On day 1 of the dosing phase approximately 5 μL of blood were collected via tail clips at minute −30 and 0 prior to any other inlife activities. At minute 0 mice received a s.c. dose of either PBS-vehicle or 30 μg/kg test article. Further blood samples were harvested at hour 0.25, 0.5, 1, 1.5, 2, 3, 4, 6, 8, and 24 post-dose. Glucose measurements were performed in whole blood using AlphaTRAK glucometers. If the glucose concentrations of two measurements differed by more than 20 mg/dL a third value was recorded. The Area Under the Curve (AUC) for blood glucose was calculated via the trapezoid method and for the duration of the 24 post-dose hours.
In the Figures data are depicted as means±SEM. […] A One Way Analysis of Variance and multiple comparisons (Dunnett's Method) were performed comparing the group of diabetic, obese db/db vehicle mice (n=8) with each diabetic, obese db/db test article treated mice (n=8). […] Non-diabetic, lean-vehicle group data are depicted in the Figures serving as a reference dataset for the non-obese, non-diabetic state.

Numbered stars: 1 amine (or outer) side, 2 acyl side, 3 side chain; on linkers, the order of the positions; unused ones are H or OH. Square brackets hold non-standard residues; d marks the D form. Side chains are listed from the residue outwards. Peptide text beside a SMILES is read from it. * marks the point of attachment. γGlu = O=C(O)[C@H](CCC(=O)[*:2])N[*:1]; Palmitoyl = CCCCCCCCCCCCCCCC(=O)*; Aib = CC(C)(N)C(=O)O

In the case of `CCCCCCCCCCCCCCCC(=O)N[C@@H](CCC(=O)N[C@@H](CCC(=O)NCCCC[C@H](NC(=O)[C@H](CC(C)C)NC(=O)[C@H](CCCCN)NC(=O)[C@H](CO)NC(=O)[C@H](CC(C)C)NC(=O)[C@H](CC(=O)O)NC(=O)[C@H](CO)NC(=O)[C@@H](NC(=O)[C@H](Cc1ccccc1)NC(=O)[C@@H](NC(=O)CNC(=O)[C@H](Cc1c[nH]cn1)NC(=O)C(C)(C)NC(=O)[C@@H](N)Cc1c[nH]cn1)[C@@H](C)O)[C@@H](C)O)C(=O)N[C@@H](CCC(=O)O)C(=O)N[C@@H](CCC(=O)O)C(=O)N[C@@H](CCC(N)=O)C(=O)N[C@@H](CCCNC(=N)N)C(=O)N[C@@H](CCC(N)=O)C(=O)N[C@@H](CCCCN)C(=O)N[C@@H](CCC(=O)O)C(=O)N[C@@H](Cc1ccccc1)C(=O)N[C@H](C(=O)N[C@@H](CCC(=O)O)C(=O)N[C@@H](Cc1c[nH]c2ccccc12)C(=O)N[C@@H](CC(C)C)C(=O)N[C@@H](CCCCN)C(=O)N[C@@H](C)C(=O)NCC(=O)NCC(=O)N[C@@H](Cc1c[nH]cn1)C(=O)N1CCC[C@H]1C(=O)N[C@@H](CO)C(=O)NC(C)(C)C(=O)N[C@@H](CCCCN)C(=O)N1CCC[C@H]1C(=O)N1CCC[C@H]1C(=O)N1CCC[C@H]1C(=O)N[C@@H](CCCCN)C(N)=O)[C@@H](C)CC)C(=O)O)C(=O)O` [SEQ ID NO: 6, H-Aib-H-G-T-F-T-S-D-L-S-K-L-K[gGlu-gGlu-Palm]-E-E-Q-R-Q-K-E-F-I-E-W-L-K-A-G-G-H-P-S-Aib-K-P-P-P-K-NH2], in series [1], the “Chemical stability [relative purity loss 28 days 40° C.] (%) at pH 4.5” value was found to be 7.1%. Moreover, in series [2], the “Lag time before increase” value is more than 45 h. For the same compound, in series [3], the “mean blood glucose concentration 24 hours post-dose relative to baseline” value is “at or close to baseline”.

As for `CCCCCCCCCCCCCCCC(=O)N[C@@H](CCC(=O)N[C@@H](CCC(=O)NCCCC[C@H](NC(=O)[C@H](CC(C)C)NC(=O)[C@H](CCCCN)NC(=O)[C@H](CO)NC(=O)[C@H](CC(C)C)NC(=O)[C@H](CC(=O)O)NC(=O)[C@H](CO)NC(=O)[C@@H](NC(=O)[C@H](Cc1ccccc1)NC(=O)[C@@H](NC(=O)CNC(=O)[C@H](Cc1c[nH]cn1)NC(=O)C(C)(C)NC(=O)[C@@H](N)Cc1c[nH]cn1)[C@@H](C)O)[C@@H](C)O)C(=O)N[C@@H](CCC(=O)O)C(=O)N[C@@H](CCC(=O)O)C(=O)N[C@@H](CCC(N)=O)C(=O)N[C@@H](CCCNC(=N)N)C(=O)N[C@@H](CCC(N)=O)C(=O)N[C@@H](CCCCN)C(=O)N[C@@H](CCC(=O)O)C(=O)N[C@@H](Cc1ccccc1)C(=O)N[C@H](C(=O)N[C@@H](CCC(=O)O)C(=O)N[C@@H](Cc1c[nH]c2ccccc12)C(=O)N[C@@H](CC(C)C)C(=O)N[C@@H](CCCCN)C(=O)N[C@@H](C)C(=O)N[C@H](C)C(=O)NCC(=O)N[C@@H](Cc1c[nH]cn1)C(=O)N1CCC[C@H]1C(=O)N[C@@H](CO)C(=O)NC(C)(C)C(=O)N[C@@H](CCCCN)C(=O)N1CCC[C@H]1C(=O)N1CCC[C@H]1C(=O)N1CCC[C@H]1C(=O)N[C@@H](CCCCN)C(N)=O)[C@@H](C)CC)C(=O)O)C(=O)O` [SEQ ID NO: 7, H-Aib-H-G-T-F-T-S-D-L-S-K-L-K[gGlu-gGlu-Palm]-E-E-Q-R-Q-K-E-F-I-E-W-L-K-A-dAla-G-H-P-S-Aib-K-P-P-P-K-NH2] (H-H[Aib]HGTFTSDLSKLK([γGlu-γGlu-Palmitoyl])EEQRQKEFIEWLKA[dA]GHPS[Aib]KPPPK-NH2), the “Chemical stability [relative purity loss 28 days 40° C.] (%) at pH 4.5” value in series [1] stood at 8.1%. The “Lag time before increase” value in series [2] was more than 45 h. In addition, in series [3], the “mean blood glucose concentration 24 hours post-dose relative to baseline” value is on record as “at baseline” and the “time to normalise hyperglycemia to the non-fasting blood glucose concentrations of lean reference mice” value is not above 6 h.

In the case of `CCCCCCCCCCCCCCCC(=O)N[C@@H](CCC(=O)N[C@@H](CCC(=O)NCCCC[C@H](NC(=O)[C@H](CC(C)C)NC(=O)[C@H](CCCCN)NC(=O)[C@H](CO)NC(=O)[C@H](CC(C)C)NC(=O)[C@H](CC(=O)O)NC(=O)[C@H](CO)NC(=O)[C@@H](NC(=O)[C@H](Cc1ccccc1)NC(=O)[C@@H](NC(=O)CNC(=O)[C@H](Cc1c[nH]cn1)NC(=O)C(C)(C)NC(=O)[C@@H](N)Cc1c[nH]cn1)[C@@H](C)O)[C@@H](C)O)C(=O)N[C@@H](CCC(=O)O)C(=O)N[C@@H](CCC(=O)O)C(=O)N[C@@H](CCC(N)=O)C(=O)N[C@@H](CCCNC(=N)N)C(=O)N[C@@H](CCC(N)=O)C(=O)N[C@@H](CCCCN)C(=O)N[C@@H](CCC(=O)O)C(=O)N[C@@H](Cc1ccccc1)C(=O)N[C@H](C(=O)N[C@@H](CCC(=O)O)C(=O)N[C@@H](Cc1c[nH]c2ccccc12)C(=O)N[C@@H](CC(C)C)C(=O)N[C@@H](CCCCN)C(=O)N[C@@H](C)C(=O)NCC(=O)NCC(=O)N1CCC[C@H]1C(=O)N1CCC[C@H]1C(=O)N[C@@H](CO)C(=O)NC(C)(C)C(=O)N[C@@H](CCCCN)C(=O)N1CCC[C@H]1C(=O)N1CCC[C@H]1C(=O)N1CCC[C@H]1C(=O)N[C@@H](CCCCN)C(N)=O)[C@@H](C)CC)C(=O)O)C(=O)O` [SEQ ID NO: 8, H-Aib-H-G-T-F-T-S-D-L-S-K-L-K[gGlu-gGlu-Palm]-E-E-Q-R-Q-K-E-F-I-E-W-L-K-A-G-G-P-P-S-Aib-K-P-P-P-K-NH2], the “Chemical stability [relative purity loss 28 days 40° C.] (%) at pH 4.5” value in series [1] turned out to be 10.3%. For the same compound, in series [2], the “Lag time before increase” value is recorded as more than 45 h. In addition, the “mean blood glucose concentration 24 hours post-dose relative to baseline” value in series [3] is “at or close to baseline”.

Consider `CCCCCCCCCCCCCCCC(=O)N[C@@H](CCC(=O)N[C@@H](CCC(=O)NCCCC[C@H](NC(=O)[C@H](CC(C)C)NC(=O)[C@H](CCCCN)NC(=O)[C@H](CO)NC(=O)[C@H](CC(C)C)NC(=O)[C@H](CC(=O)O)NC(=O)[C@H](CO)NC(=O)[C@@H](NC(=O)[C@H](Cc1ccccc1)NC(=O)[C@@H](NC(=O)CNC(=O)[C@H](Cc1c[nH]cn1)NC(=O)C(C)(C)NC(=O)[C@@H](N)Cc1c[nH]cn1)[C@@H](C)O)[C@@H](C)O)C(=O)N[C@@H](CCC(=O)O)C(=O)N[C@@H](CCC(=O)O)C(=O)N[C@@H](CCC(N)=O)C(=O)N[C@@H](CCCNC(=N)N)C(=O)N[C@@H](CCC(N)=O)C(=O)N[C@@H](CCCCN)C(=O)N[C@@H](CCC(=O)O)C(=O)N[C@@H](Cc1ccccc1)C(=O)N[C@H](C(=O)N[C@@H](CCC(=O)O)C(=O)N[C@@H](Cc1c[nH]c2ccccc12)C(=O)N[C@@H](CC(C)C)C(=O)N[C@@H](CCCCN)C(=O)N[C@@H](C)C(=O)N[C@H](C)C(=O)NCC(=O)N1CCC[C@H]1C(=O)N1CCC[C@H]1C(=O)N[C@@H](CO)C(=O)NC(C)(C)C(=O)N[C@@H](CCCCN)C(=O)N1CCC[C@H]1C(=O)N1CCC[C@H]1C(=O)N1CCC[C@H]1C(=O)N[C@@H](CCCCN)C(N)=O)[C@@H](C)CC)C(=O)O)C(=O)O` [SEQ ID NO: 9, H-Aib-H-G-T-F-T-S-D-L-S-K-L-K[gGlu-gGlu-Palm]-E-E-Q-R-Q-K-E-F-I-E-W-L-K-A-dAla-G-P-P-S-Aib-K-P-P-P-K-NH2] (H-H[Aib]HGTFTSDLSKLK([γGlu-γGlu-Palmitoyl])EEQRQKEFIEWLKA[dA]GPPS[Aib]KPPPK-NH2), for which the “Chemical stability [relative purity loss 28 days 40° C.] (%) at pH 4.5” value in series [1] is given as 6.9%. In series [2], the “Lag time before increase” value is recorded as more than 45 h. Also, the “mean blood glucose concentration 24 hours post-dose relative to baseline” value in series [3] was “at or close to baseline”.

Source of the values: patent US10538567B2, “Compounds as peptidic trigonal GLP1/glucagon/GIP receptor agonists” (priority 2016, dated 2020).
